Assay results published in patent US11059786B2, “Aminopyridine compounds and methods for the preparation and use thereof” (Cortexyme, Inc., priority 2017, dated 2021).

System: not given
Experiment: not given
Details: in vivo, po; cited from earlier work

| Compound | half-life |
| --- | --- |
| CN(NC(=O)CC[C@H](NC(=O)OCc1ccccc1)C(=O)N[C@@H](CCCCN)C(=O)C(=O)NCc1ccccc1)c1ccccc1 [Kyt-36] | increases the half-life |

Target: T1, RgpB (Porphyromonas gingivalis, UniProt P95493)
T1 construct: 0.02 nM RgpB, isolated from culture of Porphyromonas gingivalis; endogenous in cells
Experiment: RgpB inhibition, fluorogenic assay
Type: biochemical
Details: Activity (RgpB IC50), 0.02 nM RgpB, 10 μM Boc-Phe-Ser-Arg-MCA, 90 minutes, 37° C., pH=7.5
Experimental: The capacities of compounds of the present invention to inhibit the activity of RgpB were measured in a fluorogenic assay similar to those described in Barret Biochemical Journal. 1980, 187(3), 909. The specific assay conditions were as follows. Buffer: pH=7.5, 100 mM Tris-HCl, 75 mM NaCl, 2.5 mM CaCl2, 10 mM cysteine, 1% DMSO after all additions. Protein: 0.02 nM RgpB, isolated from culture of Porphyromonas gingivalis, as described in Pike et al. J. Biol. Chem. 1994, 269(1), 406, and Potempa and Nguyen. Current Protocols in Protein Scienc. 2007, 21.20.1-21.20.27. Fluorogenic substrate: 10 μM Boc-Phe-Ser-Arg-MCA. Time=90 minutes. Temperature=37° C. Each compound: 10 concentrations, starting at either 100 μM or 100 nM, with lower concentrations generated by serial 3-fold dilutions. By testing a range of concentrations for each compound, the concentration required to inhibit the activity of RgpB by 50% (the “IC50”) was determined.

T1 sequence (P95493 230-664): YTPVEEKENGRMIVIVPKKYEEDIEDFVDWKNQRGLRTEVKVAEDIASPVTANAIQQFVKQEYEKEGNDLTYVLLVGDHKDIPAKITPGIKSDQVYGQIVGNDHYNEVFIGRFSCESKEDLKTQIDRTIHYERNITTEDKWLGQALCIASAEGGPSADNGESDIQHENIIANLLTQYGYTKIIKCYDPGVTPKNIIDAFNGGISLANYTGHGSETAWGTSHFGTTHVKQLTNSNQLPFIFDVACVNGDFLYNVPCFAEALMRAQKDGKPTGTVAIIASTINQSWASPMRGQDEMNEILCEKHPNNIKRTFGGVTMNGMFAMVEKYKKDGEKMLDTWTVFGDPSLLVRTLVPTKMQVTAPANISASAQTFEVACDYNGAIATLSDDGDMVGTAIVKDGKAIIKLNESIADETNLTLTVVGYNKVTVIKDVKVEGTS

| Compound | IC50 [µM] |
| --- | --- |
| N#CN1Cc2ccccc2C1COc1ccnc(N)c1 (centres unmarked) [Compound 25, 1-(((2-aminopyridin-4-yl)oxy)methyl)isoindoline-2-carbonitrile] | 0.1 to 1 |
| N#CN1CCC(Sc2ccnc(N)c2)C1 (centres unmarked) [Compound 38, 3-((2-aminopyridin-4-yl)thio)pyrrolidine-1-carbonitrile] | 10 to 100 |
| N#CN1CCC[C@H]1C(O)Cc1ccnc(N)c1 (stereo partly drawn) [Compound 31, (2S)-2-(2-(2-aminopyridin-4-yl)-1-hydroxyethyl)pyrrolidine-1-carbonitrile] | > 100 |
| COC(C)(C)C(=O)NC(Cc1ccnc(N)c1)C(=O)COc1c(F)ccc(F)c1F (centres unmarked) [Compound 64, N-(1-(2-aminopyridin-4-yl)-3-oxo-4-(2,3,6-trifluorophenoxy)butan-2-yl)-2-methoxy-2-methylpropanamide] | 0.1 to 1 |
| CC(C)C(COc1ccnc(N)c1)N(C)C#N (centres unmarked) [Compound 34, N-(1-((2-aminopyridin-4-yl)oxy)-3-methylbutan-2-yl)-N-methylcyanamide] | 1 to 10 |
| N#CN1CCC(Oc2ccnc(N)c2)CC1 [Compound 8, 4-((2-aminopyridin-4-yl)oxy)piperidine-1-carbonitrile] | > 100 |
| N#CN1CCCC1CCOc1ccnc(N)c1 (centres unmarked) [Compound 16, 2-(2-((2-aminopyridin-4-yl)oxy)ethyl)pyrrolidine-1-carbonitrile] | 10 to 100 |
| Nc1ccc(CCC(NC(=O)C2CCCC2)C(=O)COc2ccon2)cn1 (centres unmarked) [Compound 74, N-(5-(6-aminopyridin-3-yl)-1-(isoxazol-3-yloxy)-2-oxopentan-3-yl)cyclopentanecarboxamide] | < 0.1 |
| CCC(COc1ccnc(N)c1)N(C)C#N (centres unmarked) [Compound 35, N-(1-((2-aminopyridin-4-yl)oxy)butan-2-yl)-N-methylcyanamide] | 1 to 10 |
| CC(C)N(C#N)CCCc1ccnc(N)c1 [Compound 6, N-(3-(2-aminopyridin-4-yl)propyl)-N-isopropylcyanamide] | 10 to 100 |
| CN(C)c1cc(OCC2CCCN2C#N)ccn1 (centres unmarked) [Compound 23, 2-(((2-(dimethylamino)pyridin-4-yl)oxy)methyl)pyrrolidine-1-carbonitrile] | 10 to 100 |
| Nc1cc(CC(NC(=O)C2CCCC2)C(=O)COc2c(F)ccc(F)c2F)ccn1 (centres unmarked) [Compound 69, N-(1-(2-aminopyridin-4-yl)-3-oxo-4-(2,3,6-trifluorophenoxy)butan-2-yl)cyclopentanecarboxamide] | < 0.1 |

Same assay, conditions: Activity (RgpB IC50), compound not tested above 1 μM; 0.02 nM RgpB, 10 μM Boc-Phe-Ser-Arg-MCA, 90 minutes, 37° C.

| Compound | IC50 [µM] |
| --- | --- |
| CN(C)c1nccc2cc([C@@H]3CCCN3C#N)ccc12 [Compound 52a, (S)-2-(1-(dimethylamino)isoquinolin-6-yl)pyrrolidine-1-carbonitrile] | > 1 |
